Measurements as given in the NIST ThermoML archive (doi:10.1021/je060411g).

Experiment: molar heat capacity at constant pressure
Details: 101.33 kPa

CCCC(C)O (stereo unspecified) [pentan-2-ol]
Details | molar heat capacity at constant pressure [J/K/mol]
79.67 K, Glass | 63.18
80.46 K, Glass | 63.33
82.3 K, Glass | 64.14
84.42 K, Glass | 67.58
85.14 K, Glass | 66.47
85.32 K, Glass | 67.84
86.75 K, Glass | 68.64
87.94 K, Glass | 69.06
88.7 K, Glass | 70.03
90.63 K, Glass | 71.1
90.73 K, Glass | 70.94
92.44 K, Glass | 69.53
92.56 K, Glass | 72.26
93.14 K, Glass | 65.87
93.54 K, Glass | 72.61
94.47 K, Glass | 69.28
94.5 K, Glass | 73.35
95.82 K, Glass | 74.84
96.37 K, Glass | 74.28
96.39 K, Glass | 69.82
96.44 K, Glass | 74.4
96.51 K, Glass | 73.84
97.85 K, Glass | 74.9
98.3 K, Glass | 70.93
98.39 K, Glass | 75.87
99.21 K, Glass | 76.42
99.81 K, Glass | 76.63
100.21 K, Glass | 72.31
100.33 K, Glass | 77.32
101.76 K, Glass | 76.89
102.06 K, Glass | 77.9
102.12 K, Glass | 72.26
102.28 K, Glass | 78.12
103.71 K, Glass | 77.71
104.04 K, Glass | 72.83
104.24 K, Glass | 78.97
104.91 K, Glass | 79.34
105.66 K, Glass | 79.19
105.95 K, Glass | 74.19
106.19 K, Glass | 80.14
107.61 K, Glass | 80.61
107.78 K, Glass | 81.22
107.87 K, Glass | 75.02
108.15 K, Glass | 81.83
109.56 K, Glass | 81.6
109.78 K, Glass | 76.24
110.11 K, Glass | 83.03
110.65 K, Glass | 82.72
111.51 K, Glass | 82.56
111.7 K, Glass | 77.13
112.08 K, Glass | 84.03
113.47 K, Glass | 83.55
113.52 K, Glass | 84.21
113.62 K, Glass | 77.89
114.05 K, Glass | 85.23
115.43 K, Glass | 84.36
115.53 K, Glass | 78.83
116.02 K, Glass | 86.13
116.41 K, Glass | 85.6
117.39 K, Glass | 85.19
117.45 K, Glass | 79.39
117.99 K, Glass | 86.99
119.31 K, Glass | 86.83
119.36 K, Glass | 85.74
119.37 K, Glass | 80.16
119.97 K, Glass | 87.03
121.3 K, Glass | 80.85
121.33 K, Glass | 86.41
121.95 K, Glass | 88.36
122.2 K, Glass | 88.5
123.23 K, Glass | 82.6
123.29 K, Glass | 88
123.94 K, Glass | 89.95
125.11 K, Glass | 91.4
125.15 K, Glass | 84.47
125.26 K, Glass | 89.98
125.92 K, Glass | 92.63
127.07 K, Glass | 88.92
127.21 K, Glass | 95.14
134.18 K, Liquid | 138.36
134.47 K, Liquid | 145.14
135.24 K, Liquid | 146.4
136 K, Liquid | 146.52
136.05 K, Liquid | 138.34
136.39 K, Liquid | 145.03
137.22 K, Liquid | 146.29
137.97 K, Liquid | 138.35
138.36 K, Liquid | 145.17
138.84 K, Liquid | 146.59
139.21 K, Liquid | 146.22
139.9 K, Liquid | 138.69
140.33 K, Liquid | 145.48
141.2 K, Liquid | 146.34
141.77 K, Liquid | 146.74
141.83 K, Liquid | 139.02
142.3 K, Liquid | 145.81
143.19 K, Liquid | 146.48
143.77 K, Liquid | 139.32
144.73 K, Liquid | 146.91
145.18 K, Liquid | 146.45
147.18 K, Liquid | 146.59
147.68 K, Liquid | 147.17
149.17 K, Liquid | 146.66
150.63 K, Liquid | 147.42
151.16 K, Liquid | 146.74
153.16 K, Liquid | 146.86
153.58 K, Liquid | 147.65
155.16 K, Liquid | 147.04
156.54 K, Liquid | 148.06
157.16 K, Liquid | 147.26
159.16 K, Liquid | 147.41
159.5 K, Liquid | 148.35
161.15 K, Liquid | 147.59
162.46 K, Liquid | 148.75
163.15 K, Liquid | 147.87
165.15 K, Liquid | 148.07
165.42 K, Liquid | 149.14
167.15 K, Liquid | 148.38
168.38 K, Liquid | 149.64
169.15 K, Liquid | 148.62
171.15 K, Liquid | 148.98
171.34 K, Liquid | 150.12
173.15 K, Liquid | 149.17
174.31 K, Liquid | 150.62
175.15 K, Liquid | 149.61
177.14 K, Liquid | 150.03
177.27 K, Liquid | 151.24
179.14 K, Liquid | 150.37
180.22 K, Liquid | 151.84
181.14 K, Liquid | 150.83
183.13 K, Liquid | 151.22
183.15 K, Liquid | 152.41
185.13 K, Liquid | 151.66
186.06 K, Liquid | 153.18
187.13 K, Liquid | 152.22
188.97 K, Liquid | 153.85
189.12 K, Liquid | 152.69
191.11 K, Liquid | 153.28
191.86 K, Liquid | 154.61
193.1 K, Liquid | 153.79
194.73 K, Liquid | 155.46
195.09 K, Liquid | 154.43
197.08 K, Liquid | 155.04
197.6 K, Liquid | 156.28
199.07 K, Liquid | 155.64
200.45 K, Liquid | 157.17
201.05 K, Liquid | 156.37
203.04 K, Liquid | 157.14
203.28 K, Liquid | 158.12
205.02 K, Liquid | 157.9
206.11 K, Liquid | 159.16
207 K, Liquid | 158.71
208.92 K, Liquid | 160.23
208.98 K, Liquid | 159.59
210.96 K, Liquid | 160.43
211.71 K, Liquid | 161.38
212.93 K, Liquid | 161.43
214.5 K, Liquid | 162.6
214.9 K, Liquid | 162.36
216.87 K, Liquid | 163.53
217.27 K, Liquid | 163.98
218.83 K, Liquid | 164.58
220.03 K, Liquid | 165.38
220.79 K, Liquid | 165.86
222.74 K, Liquid | 167.19
222.77 K, Liquid | 166.74
224.69 K, Liquid | 168.3
225.5 K, Liquid | 168.21
226.64 K, Liquid | 169.58
228.21 K, Liquid | 169.75
228.58 K, Liquid | 170.97
230.52 K, Liquid | 172.4
230.92 K, Liquid | 171.38
232.46 K, Liquid | 173.26
233.61 K, Liquid | 173.02
234.41 K, Liquid | 174.28
236.28 K, Liquid | 174.82
236.37 K, Liquid | 175.25
238.35 K, Liquid | 176.25
238.94 K, Liquid | 176.57
240.33 K, Liquid | 177.32
241.59 K, Liquid | 178.24
242.31 K, Liquid | 178.65
244.22 K, Liquid | 179.98
244.29 K, Liquid | 180.19
246.27 K, Liquid | 181.71
246.84 K, Liquid | 181.91
248.24 K, Liquid | 183.24
249.45 K, Liquid | 183.85
250.22 K, Liquid | 184.81
252.04 K, Liquid | 185.96
252.19 K, Liquid | 186.49
254.17 K, Liquid | 187.53
254.62 K, Liquid | 187.26
256.15 K, Liquid | 189.21
257.2 K, Liquid | 189.4
258.13 K, Liquid | 190.9
259.75 K, Liquid | 191.63
260.11 K, Liquid | 192.75
262.08 K, Liquid | 194.51
262.3 K, Liquid | 193.87
264.06 K, Liquid | 196.4
264.83 K, Liquid | 196.18
266.04 K, Liquid | 198.15
267.34 K, Liquid | 198.56
268.01 K, Liquid | 200.17
269.84 K, Liquid | 201.01
269.99 K, Liquid | 202.16
271.96 K, Liquid | 204.25
272.33 K, Liquid | 203.73
273.94 K, Liquid | 206.27
274.8 K, Liquid | 206.33
275.91 K, Liquid | 208.32
277.26 K, Liquid | 208.61
277.88 K, Liquid | 210.5
279.7 K, Liquid | 211.18
279.86 K, Liquid | 212.62
281.83 K, Liquid | 214.76
282.13 K, Liquid | 213.77
283.81 K, Liquid | 216.99
284.54 K, Liquid | 216.55
285.79 K, Liquid | 219.38
286.94 K, Liquid | 219.25
287.77 K, Liquid | 221.67
289.33 K, Liquid | 222.07
289.75 K, Liquid | 224.09
291.7 K, Liquid | 224.87
291.73 K, Liquid | 226.3
293.71 K, Liquid | 228.63
294.06 K, Liquid | 227.43
295.69 K, Liquid | 231.18
296.41 K, Liquid | 230.08
297.66 K, Liquid | 233.65
298.75 K, Liquid | 233
299.65 K, Liquid | 235.81
301.07 K, Liquid | 235.62
